Source: PubChem BioAssay AID1918998 (Molecular Pharmacology Branch, DTP, NCI, 2023)

System: 521955-158-R2-J5-PDC complex spheroid growth
Assay: Anticancer human tumor 521955-158-R2-J5-PDC patient-derived pancreatic carcinoma cell line growth inhibition [AhR]
Settings: for IC50: curve of first compound; for viability, T/C: stronger effect = lower value
In short: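 Agents were dosed in half-log steps down from roughly clinical Cmax, or from 10 microM where Cmax was unknown, alone and with AhR antagonists. Read-out: percent test/control growth of tumor spheroids containing HUVEC and MSC stromal cells.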

[1] = second compound 0.1 µM, first compound 0.0316 µM
[2] = second compound 0.1 µM, first compound 0.1 µM
[3] = second compound 0.1 µM, first compound 0.316 µM
[4] = second compound 0.1 µM, first compound 1 µM
[5] = second compound 0.1 µM, first compound 3.16 µM
[6] = second compound 0.1 µM, first compound 10 µM
[7] = second compound 0.316 µM, first compound 0.0316 µM
[8] = second compound 0.316 µM, first compound 0.1 µM
[9] = second compound 0.316 µM, first compound 0.316 µM
[10] = second compound 0.316 µM, first compound 1 µM
[11] = second compound 0.316 µM, first compound 3.16 µM
[12] = second compound 0.316 µM, first compound 10 µM
[13] = second compound 1 µM, first compound 0.0316 µM
[14] = second compound 1 µM, first compound 0.1 µM
[15] = second compound 1 µM, first compound 0.316 µM
[16] = second compound 1 µM, first compound 1 µM
[17] = second compound 1 µM, first compound 3.16 µM
[18] = second compound 1 µM, first compound 10 µM
[19] = second compound 3.16 µM, first compound 0.0316 µM
[20] = second compound 3.16 µM, first compound 0.1 µM
[21] = second compound 3.16 µM, first compound 0.316 µM
[22] = second compound 3.16 µM, first compound 1 µM
[23] = second compound 3.16 µM, first compound 3.16 µM
[24] = second compound 3.16 µM, first compound 10 µM
[25] = second compound 10 µM, first compound 0.0316 µM
[26] = second compound 10 µM, first compound 0.1 µM
[27] = second compound 10 µM, first compound 0.316 µM
[28] = second compound 10 µM, first compound 1 µM
[29] = second compound 10 µM, first compound 3.16 µM
[30] = second compound 10 µM, first compound 10 µM
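Throughout, for viability, T/C: spheroids mix tumor cells with HUVEC endothelium and human MSC stroma; luminescence taken as viability surrogate after a week of drug exposure.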

In the case of `CC1COCCN1c1cc(C2(S(C)(=N)=O)CC2)nc(-c2ccnc3[nH]ccc23)n1` (stereo not given) + Cc1ccccc1N=Nc1ccc(NC(=O)c2ccnn2C)c(C)c1, the IC50 (second compound 0.1 µM) is reported as 2050 nM, the IC50 (second compound 0.316 µM) is reported as 2360 nM and the IC50 (second compound 1 µM) is reported as 2540 nM. It also gave an IC50 (second compound 3.16 µM) of 2520 nM, an IC50 (second compound 10 µM) of 2550 nM and a viability, T/C [1] of 93.3%. The viability, T/C [2] was 84.7%, the viability, T/C [3] was 86.6% and the viability, T/C [4] was 86.2%. For the same compound, the viability, T/C [5] was 28.1%, the viability, T/C [6] was 15.9% and the viability, T/C [7] was 104%. It also gave a viability, T/C [8] of 112%, a viability, T/C [9] of 100% and a viability, T/C [10] of 101%. For the same compound, the viability, T/C [11] was 32.8%, the viability, T/C [12] was 14% and the viability, T/C [13] was 117%. It also gave a viability, T/C [14] of 110%, a viability, T/C [15] of 136% and a viability, T/C [16] of 109%. For the same compound, the viability, T/C [17] was 36.2%, the viability, T/C [18] was 14.8% and the viability, T/C [19] was 123%. It also gave a viability, T/C [20] of 135%, a viability, T/C [21] of 131% and a viability, T/C [22] of 120%. The viability, T/C [23] was 32.8%, the viability, T/C [24] was 15.5% and the viability, T/C [25] was 130%. For the same compound, the viability, T/C [26] was 149%, the viability, T/C [27] was 139% and the viability, T/C [28] was 124%. For the same compound, the viability, T/C [29] was 32.9% and the viability, T/C [30] was 16.1%.

For `CC(C)c1c(-c2ccccc2)nc2c(C#N)c[nH]n2c1=O` + Cc1cncc(-c2nc(NCCc3c[nH]c4ccccc34)c3ncn(C(C)C)c3n2)c1, the IC50 (second compound 0.1 µM) was greater than 10000 nM, the IC50 (second compound 0.316 µM) was greater than 10000 nM and the IC50 (second compound 1 µM) was greater than 10000 nM. For the same compound, the IC50 (second compound 3.16 µM) was greater than 10000 nM, the IC50 (second compound 10 µM) was greater than 10000 nM and the viability, T/C [1] was 96.9%. The viability, T/C [2] was 112%, the viability, T/C [3] was 114% and the viability, T/C [4] was 101%. It also gave a viability, T/C [5] of 98.7%, a viability, T/C [6] of 94.6% and a viability, T/C [7] of 101%. It also gave a viability, T/C [8] of 137%, a viability, T/C [9] of 98.9% and a viability, T/C [10] of 106%. The viability, T/C [11] was 95.7%, the viability, T/C [12] was 94.6% and the viability, T/C [13] was 133%. For the same compound, the viability, T/C [14] was 142%, the viability, T/C [15] was 127% and the viability, T/C [16] was 112%. The viability, T/C [17] was 106%, the viability, T/C [18] was 105% and the viability, T/C [19] was 169%. For the same compound, the viability, T/C [20] was 151%, the viability, T/C [21] was 146% and the viability, T/C [22] was 134%. It also gave a viability, T/C [23] of 131%, a viability, T/C [24] of 136% and a viability, T/C [25] of 134%. The viability, T/C [26] was 147%, the viability, T/C [27] was 153% and the viability, T/C [28] was 143%. It also gave a viability, T/C [29] of 118% and a viability, T/C [30] of 124%.
